Results as given in patent US20220040255A1, “CHEMOTHERAPEUTIC REMODELING OF THE GUT MICROBIOME” (THE SCRIPPS RESEARCH INSTITUTE, priority 2018, published 2022).
Where a SMILES comes first, the peptide text is derived from it. [ ]: non-standard residue; d: D form.

Legend:
Format in all cases: in vivo, mice
[1] = Pharmacokinetics of c[wLwReQeR] via different routes of administration
Description: Pharmacokinetics. These experiments were carried out in part courtesy of Carol S. Ryan, Debra J. Search, Ricardo A. Garcia, and David A. Gordon at Bristol Myers Squibb (Hopewell, N.J., USA). Male Balb/C or C57BL/6 mice (20 g) were maintained on a chow diet. The cyclic peptide c[wLwReQeR] (SEQ ID NO:11) was dissolved in PBS containing 1% sucrose or 95% 50 mM acetate buffer containing 10% sucrose, 5% DMSO (pH=4), and sterile filtered through a 0.22-μm syringe filter before injection. Mice were fasted beginning 12 h before dosing, and continued the fast until after the 8-h time point blood draw was completed. Groups of three mice received a dose of the cyclic peptide via […] (5 mL/kg for subcutaneous and intraperitoneal, 10 mL/kg for oral gavage). Blood was drawn (30-60 μL) from the retro-orbital sinus into a heparinized capillary tube before dosing (0 min) and at different intervals from 30 min to 8 h after dosing. Plasma was isolated immediately from the whole blood by centrifugation at 5,000 rpm for 10 min at 4° C. Immediately after the plasma was isolated, 20 μL of plasma was acidified with 20 μL of 5% TFA to break peptide-protein interactions, and 40 μL of acetonitrile was then added. After vortexing for 30 s, the mixture was centrifuged at 13,000 rpm for 10 min at 4° C. The resultant supernatant was analyzed by using LC-MS SIM as described below.
LC-MS SIM quantitation of peptide concentration. Cyclic peptide concentrations were quantified by using reverse-phase HPLC coupled with mass spectrometry. The electrospray ionization mass spectrometry measurements were carried out in the positive ionization mode using a single quadrupole mass spectrometer (Hewlett Packard HP 1100 MSD series). 10 or 20 μL of sample were injected through a C8 reverse-phase column (Zorbax 300-SB, 4.6 mm×150 mm, 5 μm) using a flow rate of 1.5 mL/min and binary gradients of solvent A (99% H2O, 0.1% formic acid, 0.01% TFA) and solvent B (99% acetonitrile, 0.1% formic acid, 0.01% TFA). Mass detection was carried out in the selected ion monitoring (SIM) mode for the positive molecular ion, with the optimized fragmentor and capillary voltages of 180 V and 5 kV, respectively. The selected monitoring mass for cyclic peptide c[wLwReQeR] (SEQ ID NO:11) was 592.8 ([M+2H]^2+). For quantitative calibration, standard curves were established using mouse EDTA-anticoagulated plasma spiked with various concentrations of the peptide. The calibration curve was established by using linear fitting of the data, with correlation coefficient ≥0.98.

[2] = test system: mouse liver and ileum gene expression; test: host gene expression (mouse RNA-seq, qPCR); settings: peptide-treated WD animals
Description: Mouse RNA-seq sample preparation and sequencing. Mouse tissues were harvested after 2 weeks of treatment, stored in RNAlater, and snap-frozen. 20-30 mg of mouse tissue was used for RNA extraction with RNeasy Mini Kit (Qiagen) following the manufacturer's instructions. Ribosomal RNA was removed from total RNA with Ribo-Zero Gold rRNA removal kit (Illumina). Strand-specific RNA-seq libraries were constructed as described previously (Hainer et al., Genes Dev. 29, 362-378, 2015). Libraries with different barcodes were pooled and single-end sequencing (75 bp) was performed on an Illumina NextSeq at the Scripps Research Institute next generation sequencing core.
Mouse RNA sequencing data analysis. After ribosomal RNA sequences were removed, the RNA transcripts were quantified using RSEM. […] Enrichment of Gene Ontology terms and categories was performed with DAVID 6.8.
Quantitative real-time PCR. To validate selected gene expression results, qPCR reactions were carried out. Mouse livers were harvested two weeks after peptide treatment and total RNA was extracted using RNeasy Mini (Qiagen) following manufacturer's instructions. […]

[3] = test system: Foxp3+ regulatory T cell (Treg) population; test: quantification of regulatory T cells in lamina propria
From the text: Quantification of regulatory T cells. Lamina propria (LP) immune cells from the small intestine were isolated using lamina propria dissociation kit (Miltenyi Biotec) following the manufacturer's instruction. All antibodies and flow cytometry reagents were obtained from Thermo Fisher. We used FITC anti-CD4 (RM4-5), PE anti-Foxp3 (FJK-16s), PE-Cyanine 7 anti-GATA3 (TWAJ), APC anti ROR gamma t (AFKJS-9), APC-efluor780 anti-Helios (22F6) and e-fluor 450 anti-CD3 (17A2) antibodies. To block non-antigen specific binding of immunoglobulins and discriminate live from dead cells, LP cell suspensions were incubated with mouse BD Fc block (BD Biosciences) and e-fluor 506 fixable viability dye (Thermo Fisher) for 30 minutes on ice. For surface staining, the cells were incubated with antibodies for 25 min, washed and fixed in fixation/permeabilization solution (Thermo Fisher). After being washed with transcription factor wash buffer (Thermo Fisher), cells were stained intracellularly for 45 min at room temperature, washed, and resuspended in PBS. Samples were read in a FACs canto analyzer (BD Biosciences) and analyzed with FACs Diva software v 8.0 (BD Biosciences). Total LP cell numbers were quantified to calculate regulatory T cell ratios. Flow Jo v10 software was used for dot plots generation and final analysis.

[4] = wild-type and LDLr−/− mice fed a WD

## CC(C)C[C@@H]1NC(=O)[C@@H](Cc2c[nH]c3ccccc23)NC(=O)[C@H](CCCNC(=N)N)NC(=O)[C@@H](CCC(=O)O)NC(=O)[C@H](CCC(N)=O)NC(=O)[C@@H](CCC(=O)O)NC(=O)[C@H](CCCNC(=N)N)NC(=O)[C@@H](Cc2c[nH]c3ccccc23)NC1=O [c[wLwReQeR]] (cyclo([dW]L[dW]R[dE]Q[dE]R))
[1]; male, C57BL/6, mouse, plasma, oral gavage, 15 mg/kg, C57B1/6
  Tmax: < 3 h
[1]; male, C57BL/6, mouse, plasma, oral gavage, 15 mg/kg, C57B1/6, read-out: AUC 0-24 h
  AUC(0-t): < 3 nM·h
[1]; male, mouse, plasma, ip, 16-mg/kg i.p., BALB/c mice, read-out: peak plasma concentration
  Cmax: 13 µM
[1]; oral gavage, limit of detection=3 nM
  peptide in plasma after oral gavage: not detectable
[2]
  expression of cholesterol 7 alpha-hydroxylase (Cyp7a1): significantly increased
[3]
  composition of Foxp3+ regulatory T cell (Treg) population: significantly altered
[3]; [4]
  Helios+/RORγt+ Treg ratio: increased
  Helios+/Th17 ratio: increased
